Converted amounts (≈) assume the structure as drawn.
What was measured:
Escherichia coli [1] = assay: Antibacterial activity against Escherichia coli ATCC25922 incubated for 16 to 20 hrs by broth microdilution method; assay type: functional; details: time 16-20 hrs
[2] = tested on: Stenotrophomonas maltophilia; assay: Antibacterial activity against Stenotrophomonas maltophilia ATCC17808 incubated for 16 to 20 hrs by broth microdilution method; assay type: functional; details: time 16-20 hrs
Escherichia coli [3] = assay: Antibacterial activity against Escherichia coli ATCC25922 under 10^4 CFU/ml of bacterial inoculum culture by absorbance based assay; assay type: functional
Escherichia coli [4] = assay: Antibacterial activity against Escherichia coli ATCC25922 under 10^5 CFU/ml of bacterial inoculum culture by absorbance based assay; assay type: functional
Escherichia coli [5] = assay: Antibacterial activity against Escherichia coli ATCC25922 under 10^6 CFU/ml of bacterial inoculum culture by absorbance based assay; assay type: functional
Escherichia coli [6] = assay: Antibacterial activity against Escherichia coli ATCC25922 under 10^7 CFU/ml of bacterial inoculum culture by absorbance based assay; assay type: functional
Staphylococcus aureus [7] = assay: Induction of resistance development in Staphylococcus aureus ATCC25923 treated daily with continuous passaging measured after 13 passages by absorbance based assay; assay type: functional; details: ATCC25923, 312 h, time 13 day
Staphylococcus aureus [8] = assay: Induction of resistance development in Staphylococcus aureus ATCC25923 treated daily with continuous passaging measured after 16 passages by absorbance based assay; assay type: functional; details: ATCC25923, 384 h, time 16 day
Staphylococcus aureus [9] = assay: Antibacterial activity against Staphylococcus aureus ATCC25923 incubated for 16 to 20 hrs by broth microdilution method; assay type: functional; details: time 16-20 hrs
Enterococcus faecalis [10] = assay: Antibacterial activity against Enterococcus faecalis ATCC29212 incubated for 16 to 20 hrs by broth microdilution method; assay type: functional; details: time 16-20 hrs
Staphylococcus aureus [11] = assay: Antibacterial activity against drug-resistant Staphylococcus aureus clinical isolate M20 incubated for 16 to 20 hrs by broth microdilution method; assay type: functional; details: time 16-20 hrs
Escherichia coli [12] = assay: Antibacterial activity against drug-resistant Escherichia coli clinical isolate 1322 incubated for 16 to 20 hrs by broth microdilution method; assay type: functional; details: time 16-20 hrs
Escherichia coli [13] = assay: Antibacterial activity against drug-resistant Escherichia coli clinical isolate 1333 incubated for 16 to 20 hrs by broth microdilution method; assay type: functional; details: time 16-20 hrs
Staphylococcus aureus [14] = assay: Bactericidal activity against Staphylococcus aureus ATCC25923 incubated for 20 to 24 hrs; assay type: functional; details: time 20-24 hrs
Staphylococcus aureus [15] = assay: Antibacterial activity against Staphylococcus aureus ATCC25923 incubated for 20 to 24 hrs; assay type: functional; details: time 20-24 hrs
Staphylococcus aureus [16] = assay: Ratio of MBC to MIC for Staphylococcus aureus ATCC25923 incubated for 20 to 24 hrs; assay type: functional; details: time 20-24 hrs
Enterococcus faecalis [17] = assay: Bactericidal activity against Enterococcus faecalis ATCC29212 incubated for 20 to 24 hrs; assay type: functional; details: time 20-24 hrs
Enterococcus faecalis [18] = assay: Antibacterial activity against Enterococcus faecalis ATCC29212 incubated for 20 to 24 hrs; assay type: functional; details: time 20-24 hrs
Enterococcus faecalis [19] = assay: Ratio of MBC to MIC for Enterococcus faecalis ATCC29212 incubated for 20 to 24 hrs; assay type: functional; details: time 20-24 hrs
Escherichia coli [20] = assay: Antibacterial activity against Escherichia coli ATCC25922 incubated for 20 to 24 hrs; assay type: functional; details: time 20-24 hrs
[21] = tested on: Stenotrophomonas maltophilia; assay: Bactericidal activity against Stenotrophomonas maltophilia ATCC17808 incubated for 20 to 24 hrs; assay type: functional; details: time 20-24 hrs
[22] = tested on: Stenotrophomonas maltophilia; assay: Antibacterial activity against Stenotrophomonas maltophilia ATCC17808 incubated for 20 to 24 hrs; assay type: functional; details: time 20-24 hrs
[23] = tested on: Stenotrophomonas maltophilia; assay: Ratio of MBC to MIC for Stenotrophomonas maltophilia ATCC17808 incubated for 20 to 24 hrs; assay type: functional; details: time 20-24 hrs
Staphylococcus aureus [24] = assay: Antibacterial activity against Staphylococcus aureus ATCC25923 under 10^4 CFU/ml of bacterial inoculum culture by absorbance based assay; assay type: functional
Staphylococcus aureus [25] = assay: Antibacterial activity against Staphylococcus aureus ATCC25923 under 10^5 CFU/ml of bacterial inoculum culture by absorbance based assay; assay type: functional
Staphylococcus aureus [26] = assay: Antibacterial activity against Staphylococcus aureus ATCC25923 under 10^6 CFU/ml of bacterial inoculum culture by absorbance based assay; assay type: functional
Staphylococcus aureus [27] = assay: Antibacterial activity against Staphylococcus aureus ATCC25923 under 10^7 CFU/ml of bacterial inoculum culture by absorbance based assay; assay type: functional
[28] = Cytotoxicity against mouse HT-22 cells incubated for 72 hrs by MTT assay; assay type: toxicity, cell-based
[29] = Selectivity index, ratio of IC50 for mouse HT-22 cells to MIC for methicillin-resistant Staphylococcus aureus; assay type: toxicity, cell-based

## CC(=O)NC[C@H]1CN(c2ccc(N3CCOCC3)c(F)c2)C(=O)O1 [LINEZOLID]
Escherichia coli [1]
  MIC: > 32 µg/mL
[2]
  MIC: > 32 µg/mL
Escherichia coli [3]
  MIC: < 0.063 µg/mL
Escherichia coli [4]
  MIC: < 0.063 µg/mL
Escherichia coli [5]
  MIC: < 0.063 µg/mL
Escherichia coli [6]
  MIC: < 0.063 µg/mL
Staphylococcus aureus [7]
  MIC: 8 µg/mL (≈ 23.7 µM)
Staphylococcus aureus [8]
  MIC: 16 µg/mL (≈ 47.4 µM)

## CC[C@H]1OC(=O)C[C@@H](O)[C@H](C)[C@@H](O[C@@H]2O[C@H](C)[C@@H](O)[C@H](N(C)C)[C@H]2O)[C@@H](CCN2CCCCC2)C[C@@H](C)C(=O)/C=C/C(C)=C/[C@@H]1CN1CCCCC1 [TILDIPIROSIN]
Staphylococcus aureus [9]
  MIC: 16 µg/mL (≈ 21.8 µM)
Escherichia coli [1]
  MIC: 1 µg/mL (≈ 1.36 µM)
Enterococcus faecalis [10]
  MIC: 16 µg/mL (≈ 21.8 µM)
[2]
  MIC: 1 µg/mL (≈ 1.36 µM)
Staphylococcus aureus [11]
  MIC: 32 µg/mL (≈ 43.6 µM)
Escherichia coli [12]
  MIC: 4 µg/mL (≈ 5.45 µM)
Escherichia coli [13]
  MIC: 16 µg/mL (≈ 21.8 µM)
Staphylococcus aureus [14]
  MBC: 4 µg/mL (≈ 5.45 µM)
Staphylococcus aureus [15]
  MIC: 0.5 µg/mL (≈ 0.681 µM)
Staphylococcus aureus [16]
  Ratio: 8
Enterococcus faecalis [17]
  MBC: 16 µg/mL (≈ 21.8 µM)
Enterococcus faecalis [18]
  MIC: 8 µg/mL (≈ 10.9 µM)
Enterococcus faecalis [19]
  Ratio: 2
Escherichia coli [20]
  MIC: 32 µg/mL (≈ 43.6 µM)
[21]
  MBC: 16 µg/mL (≈ 21.8 µM)
[22]
  MIC: 8 µg/mL (≈ 10.9 µM)
[23]
  Ratio: 2
Escherichia coli [3]
  MIC: > 32 µg/mL
Escherichia coli [4]
  MIC: > 32 µg/mL
Escherichia coli [5]
  MIC: > 32 µg/mL
Escherichia coli [6]
  MIC: > 32 µg/mL
Staphylococcus aureus [24]
  MIC: 0.5 µg/mL (≈ 0.681 µM)
Staphylococcus aureus [25]
  MIC: 0.5 µg/mL (≈ 0.681 µM)
Staphylococcus aureus [26]
  MIC: 1 µg/mL (≈ 1.36 µM)
Staphylococcus aureus [27]
  MIC: 1 µg/mL (≈ 1.36 µM)
[28]
  IC50 at 72 h: 114 µg/mL (≈ 155 µM)
[29]
  selectivity ratio: 3.56
